Literature values as cited in patent US20250346572A1, “NON-ACID INHIBITORS OF INOSITOL HEXAKISPHOSPHATE KINASE (IP6K) AND METHODS OF USE THEREOF” (Lieber Institute, Inc., priority 2022, published 2025).

Tested on: Mice treated with HFD
Settings: HFD for 8 weeks, then daily intraperitoneal 20 mg/kg TNP and HFD for 18 days

O=[N+]([O-])c1ccc(CNc2nc(NCc3cccc(C(F)(F)F)c3)nc3nc[nH]c23)cc1 [TNP, N2-(m-trifluorobenzyl)-N6-(p-nitrobenzyl)purine]
glucose tolerance and insulin sensitivity: improved glucose tolerance and insulin sensitivity
serum insulin levels: lower serum insulin levels
